Results as given in patent US20240117402A1, “METHODS FOR (POLY) PEPTIDE TANDEM LIGATION AND CYCLIZATION” (Nanyang Technological University, priority 2021, published 2024).
Where no end group is shown, it is not given here.

Assays:
butelase-1 [1] = experiment: Butelase-1-catalyzed peptide cyclization (substrate screen, pH scan, kinetics); type: biochemical; conditions: 25 nM butelase-1, 5 μM peptide, pH 4.5, 25° C., 60 min
Description: FIG. 9. Screening of P1′-Asp peptides for cyclization by A) VyPAL2, B) butelase-1 and C) OaAEP1b. Quantitative summary of reaction yields of the reaction mixtures. For each reaction, 25 nM of the enzyme and 5 μM of the peptide substrate (21a-21i) were mixed and reacted at pH 4.5, 25° C. for 60 min. The positive control peptide 21j was performed at the same conditions except at pH 7.4. Average yields and SDs were calculated from experiments performed in triplicate. The amino acid sequence of the peptides used are set forth in SEQ ID Nos. 15-24.
FIG. 10. Ligation activity of three different ligases under different pH and substrate. Cyclization activity of A) VyPAL2, B) Butelase-1 or C) OaAEP1b towards substrate 21e-DSL and 21j-NGL; Fold difference was calculated using the cyclization rate of 21j-NGL divided by that of 21e-DSL. All the results were the average reaction rate at different pH in triplicate experiments based on MALDI-TOF analysis. Light grey text in the “Fold difference” axis marks to the maximum fold difference.
FIG. 11. Enzymatic activity of three different ligases on the cyclization reaction of P1-Asp peptide 21e-DSL or 21a-DGL and P1-Asn-peptide 21j-NGL. A) Scheme of PAL-mediated P1-Asp peptide cyclization; B) Enzymatic kinetics of VyPAL2 in cyclizing 21e-DSL at pH 4.5; C) Enzymatic kinetics of VyPAL2 in cyclizing 21e-DSL at pH 7.0; D) Enzymatic kinetics of OaAEP1b in cyclizing 21a-DGL at pH 5.5; E) Enzymatic kinetics of Butelase-1 in cyclizing 21e-DSL at pH 4.5. F) Scheme of PAL-mediated cyclization of peptide 21j-NGL; G). Enzymatic kinetics of butelase-1 in cyclizing […] at pH 4.5; H)
Enzymatic kinetics of VyPAL2 in cyclizing 21j-NSL at pH 4.5; I) Enzymatic kinetics of butelase-1 in cyclizing 21j-NSL at pH 7.4; J) Enzymatic kinetics of OaAEP1b in cyclizing 21j-NSL at pH 7.0. Sequences of peptides used are set forth in SEQ ID Nos. 15, 19, 24.
PALs recognize a tripeptide motif Asx-P1′-P2′ in the acyl donor substrate for their catalyzed ligation reactions. Because the formation of the acyl-enzyme thioester intermediate is the rate-limiting step, the leaving group P1′-P2′ also plays an important role in determining the catalytic kinetics of a particular 40 PAL-mediated reaction. Previous studies have determined Leu as a preferred P2′ residue. To identify the most favorable P1′ residues for PAL-catalyzed Asp-ligation, a panel of peptides (peptide 21a-21j) with C-terminal DXL and N-terminal GI motifs was synthesized and cyclization reactions performed. Peptide 21j with a C-terminal NGL, a P1-Asn peptide favored by VyPAL2, was used for comparison with the P1-Asp peptides 21a-21i. […] Meanwhile, the P1′ substrate specificities of the two other ligases - Butelase-1 and OaAEP1b - were also evaluated by using the same substrates 21a-21j.
A pH scan experiment with the other two ligases: butelase-1 and OaAEP1 b, for their cyclase activity on 21e and 21j was also conducted. […] In fact, the difference in reaction efficiency between 21j and 21e was about 950 times at pH 7.4 (FIG. 10). […] This makes VyPAL2 a more efficient ligase than butelase-1 for Asp-mediated protein modification.

VyPAL2 = experiment: VyPAL2-mediated intermolecular peptide ligation kinetics (HPLC); type: biochemical, Viola yedoensis; conditions: for Km / kcat: VyPAL2, limiting substrate 50-800 μM; for Km: partner peptide constant; for kcat: partner peptide constant (1 with 2 at 1 mM; 5 with 4 at 1.5 mM; 7 with 2 at 1.5 mM)
Description: (§1) FIG. 3. Kinetic studies on VyPAL2- and butelase 1-catalyzed intermolecular ligations. A) Peptide 1 (SEQ ID NO:7) containing the C-terminal NHV sequence was used at varying concentrations (50 — 800 μM) to react with peptide 2 (SEQ ID NO:8) at constant concentration (1 mM); B) Peptide 4 (SEQ ID NO:9) at a constant concentration (1.5 mM) was reacted with the GF-peptide 5 (SEQ ID NO:10) at varying concentrations (50-800 μM). C) Peptide 2 at a constant concentration (1.5 mM) was reacted with the -NGF peptide 7 (SEQ ID NO:11) at varying concentrations (50-800 μM). The ligation product 3 or 6 was confirmed by ESI-MS. The reaction rates were calculated from the consumption of the limiting substrate 1, 5 or 7. Initial rate (V0) at different concentrations of the limiting substrate were used for Michaelis-Menten curve plotting. For each kinetic calculation, a lineweaver-Burk plot was also used to confirm the analysis.
(§2) PAL enzymes have been used extensively for protein single-site labeling and macrocyclization. However, using two PALs of different substrate specificity for bio-orthogonal and dual ligation remains unexplored. […] To determine the differences quantitatively, firstly the kinetics of VyPAL2 and butelase-1 toward peptide 1 or 7 which has a C-terminal NHV or NGF tripeptide motif respectively were studied (Table 1). The nucleophile substrate, used at a constant concentration, was peptide 2 which contains an N-terminal GI dipeptide motif. Reverse-phase analytical HPLC was used to monitor and quantify the ligation reaction. […] Similarly, kinetics of the two ligases towards a GF-starting nucleophile substrate, peptide 5, were also examined.
(§3) In this case, the acyl substrate, now kept at a constant concentration for the kinetic study, was peptide 4 which contains NGL at the C-terminus, a favorable motif for both VyPAL2 and butelase-1. It was shown that VyPAL2 has 5-fold catalytic efficiency than butelase-1 towards the GF-peptide substrate 5 (Table 1 and FIG. 3). In summary, the kinetic studies confirm the differential activities of butelase-1 and VyPAL2 toward certain substrate sequences, which provide strong support for a two-PAL, bio-orthogonal tandem ligation scheme for protein dual labeling.

butelase-1 [2] = experiment: Butelase-1-mediated intermolecular peptide ligation kinetics (HPLC); type: biochemical; conditions: for Km / kcat: Butelase-1, limiting substrate 50-800 μM, partner peptide constant
Description: as §1, §2, §3

Chain of VyPAL2 (as listed by the source): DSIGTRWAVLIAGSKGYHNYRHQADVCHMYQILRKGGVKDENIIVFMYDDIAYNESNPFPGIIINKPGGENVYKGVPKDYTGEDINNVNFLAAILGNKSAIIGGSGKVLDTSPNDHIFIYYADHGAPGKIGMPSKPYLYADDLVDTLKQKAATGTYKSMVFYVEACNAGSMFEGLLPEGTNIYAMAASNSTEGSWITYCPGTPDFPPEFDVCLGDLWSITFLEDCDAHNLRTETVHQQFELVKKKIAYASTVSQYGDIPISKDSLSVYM
Chain of butelase-1 (as listed by the source): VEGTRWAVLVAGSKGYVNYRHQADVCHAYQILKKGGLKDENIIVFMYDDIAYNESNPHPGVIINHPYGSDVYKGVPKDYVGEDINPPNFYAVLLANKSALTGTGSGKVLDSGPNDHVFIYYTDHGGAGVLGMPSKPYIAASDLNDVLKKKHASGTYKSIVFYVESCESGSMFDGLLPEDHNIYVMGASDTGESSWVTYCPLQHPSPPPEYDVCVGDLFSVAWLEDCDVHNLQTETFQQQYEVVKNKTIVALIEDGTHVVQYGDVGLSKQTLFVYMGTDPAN

| Substance | substrate preference among P1-Asp peptides (butelase-1 [1]) | Km (VyPAL2) | kcat (VyPAL2) | catalytic activity/efficiency of VyPAL2 relative to butelase-1 towards the substrate (VyPAL2; intermolecular ligation) | Km (butelase-1 [2]) | kcat (butelase-1 [2]) | catalytic activity of butelase-1 relative to VyPAL2 towards the substrate (butelase-1 [2]; intermolecular ligation) |
| --- | --- | --- | --- | --- | --- | --- | --- |
| GISTKSIPPISYRDRL (GISTKSIPPISYRDRL-NH2) [Peptide 21f] | least favored P1-Asp substrate | – | – | – | – | – | – |
| GFGGIKA (GFGGIKA-NH2) [Peptide 5] | – | 424 ± 26 µM | 8.29 ± 0.48 S^−1 | 5 times | 365 ± 3 µM | 1.55 ± 0.01 S^−1 | – |
| GISTKSIPPISYRDQL (GISTKSIPPISYRDQL-NH2) [Peptide 21h] | slight preference | – | – | – | – | – | – |
| Ac-KKLAVINHV (Ac-KKLAVINHV-NH2) [Peptide 1] | – | 182 ± 6 µM | 0.17 ± 0.01 S^−1 | – | 85 ± 3 µM | 1.47 ± 0.04 S^−1 | about 18 times |
| GISTKSIPPISYRDLL (GISTKSIPPISYRDLL-NH2) [Peptide 21d] | slight preference | – | – | – | – | – | – |
